The results in this text go back to ChEMBL document CHEMBL4340568, “Synthesis of distal and proximal fleximer base analogues and evaluation in the nucleocapsid protein of HIV-1” (Bioorg Med Chem, 2019).

In experiment [1] the test system is Human immunodeficiency virus 1. The experiment in a line: Binding affinity to HIV1 Nucleocapsid protein expressed in Escherichia coli BL21(DE3) pLysE at 1:1 ratio of compound/protein by 1H NMR spectroscopy.
Experiment [2] concerns Human immunodeficiency virus 1. The experiment can be described thus: Antiviral activity against HIV1. It is filed as functional, organism-based.

Calls of active or inactive are those of the source. No cut-off for these calls is given here.

As for `Nc1nc(-c2c[nH]cn2)cc(=O)[nH]1`, the outcome in experiment [1] was Active. For the same compound, the result in experiment [2] was inactive.

Take `Nc1ncc(-c2c[nH]cn2)c(=O)[nH]1`: the outcome in experiment [2] was inactive.

`Nc1nc(-c2cc(=O)[nH]c(N)n2)cc(=O)[nH]1`: the outcome in experiment [2] was inactive.

In the case of `Nc1ncc(-c2cnc(N)[nH]c2=O)c(=O)[nH]1`, the outcome in experiment [2] was inactive.
